Assay results published in PMC12806164, “Epithelial Heparan Sulfate Promotes Staphylococcus aureus Corneal Infection by Inhibiting Cathelicidins” (Proteoglycan research, 2025).
No end group written: not given here.

Key:
[1] = Alexa 647-CRAMP binding to Affi-Gel HP beads, direct and with unlabeled peptides (flow cytometry); details: 20-fold excess (5 μM) unlabeled peptide, 250 nM Alexa 647-labeled CRAMP, 1 h at room temperature, n = 3–4
Description: FIGURE 5 | Secondary structure of mature CRAMP is required for binding to heparan compounds. (A) Sequence and pI (in parentheses) of the 34 amino acid long mature CRAMP and four 10- or 20-mer peptides that span amino acids 4–13 (CR-1), 13–22 (CR-2), 24–33 (CR-3), or 4–23 (CR-4) of mature CRAMP. (B) Affi-Gel HP beads were incubated with 250 nM of Alexa 647-labeled CRAMP without or with 5 μM of unlabeled CRAMP, heat-treated CRAMP, CR-1, CR-2, CR-3, or CR-4 peptides for 1 h at room temperature. […] (C) ITC analyses of heat-treated CRAMP binding to HP. The fitted heat curve of titrating CRAMP binding to HP is shown. TEXT PRINTED IN THE PICTURE: (A) CRAMP: (10.0) | (A) CR-1: (9.6) | (A) CR-2: (10.6) | (A) CR-3: (5.9) | (A) CR-4: (10.4) DOUBTS OF THE COPYIST ABOUT THIS PICTURE: Panel A: the numbers in brackets after the peptide names are printed without any measure or unit in the picture, so they are given as printed, without a measure.
(§1) Affi-Gel HP beads were washed and resuspended in PBS. Affi-Gel HP beads (20 μL) were incubated with 0.5 μM Alexa 647-labeled CRAMP without or with 20 μg/mL HP, chemically desulfated HP, or chemoenzymatically sulfated H for 1 h at room temperature. Affi-Gel HP beads were washed with PBS, and the Alexa 647-labeled CRAMP bound to them was assessed by flow cytometry.

S. aureus USA300 [2] = test: Bacteria live/dead staining (BaclightGreen / propidium iodide); type: cell-based, Staphylococcus aureus; details: 0.5 μM CRAMP without or with 5 μg/mL compound, 30 min at room temperature, propidium iodide 10 μg/mL
Description: (§2) (A) Schematics of HS/HP structure. […] (F) BaclightGreen-labeled S. aureus (~400 cfu) was incubated with 0.5 μM CRAMP without or with 5 μg/mL HP, NDS-HP, 2ODS-HP, 6ODS-HP, H, NS-H, or NS2OS-H for 30 min at room temperature. Bacteria were washed, incubated with 10 μg/mL propidium iodide for 15 min at 4°C, and live (green) and dead (red) bacteria were visualized by fluorescence microscopy.
S. aureus USA300 was stained by BaclightGreen (Thermo Fisher) following the manufacturer’s instructions. Briefly, an overnight culture of S. aureus was resuspended in PBS and incubated with 100 μM BaclightGreen for 15 min at room temperature. […] Bacteria were mounted on glass slides and images were captured with a fluorescence microscope (Zeiss Axiovert 40 CFL). […]
Figure S1. A) CRAMP expression was measured in uninfected Wt corneas or Wt corneas isolated at 4 h post-S. aureus USA300 infection. […] Total RNA was purified from the corneal epithelium, and 1 ng of total RNA was analyzed by qRT-PCR for CRAMP or β-actin expression (n = 3, **p < 0.01). […] Bacterial killing was measured by plating serial dilutions onto TSA plates and counting colonies the following day. […] Bacteria were washed three times with buffer, incubated with 0.5 μM CRAMP for 2 h at 37°C, and % bacterial killing was determined by plating serial dilutions of samples (n = 4). […] Images were captured with a fluorescence microscope (Zeiss Axiovert 40 CFL). […]

S. aureus USA300 [3] = test: Pre-incubation of S. aureus with glycosaminoglycans, washing, then killing by cathelicidin; type: cell-based, Staphylococcus aureus; details: 5 μg/ml glycosaminoglycan pre-incubated with 500 cfu USA300 30 min at 37°C, washed three times, then 0.5 μM CRAMP 2 h at 37°C, n = 4
Description: Figure S1. A) CRAMP expression was measured in uninfected Wt corneas or Wt corneas isolated at 4 h post-S. aureus USA300 infection. Briefly, eyes were enucleated, corneas were dissected, and isolated corneas were incubated with 10 mg/ml dispase II overnight at 4°C to peel off the corneal epithelium. Total RNA was purified from the corneal epithelium, and 1 ng of total RNA was analyzed by qRT-PCR for CRAMP or β-actin expression (n = 3, **p < 0.01). […] Bacterial killing was measured by plating serial dilutions onto TSA plates and counting colonies the following day. Results are shown as % bacterial survival (n = 4). Figure S2. […] Bacterial killing (%) was enumerated by plating serial dilutions onto TSA plates and counting colonies the following day (n = 5). B) Effects of pre-incubating S. aureus with glycosaminoglycans on bacterial killing by cathelicidins were examined by incubating 500 cfu of USA300 without or with 5 μg/ml HS, HP, DS, or CS for 30 min at 37°C. Bacteria were washed three times with buffer, incubated with 0.5 μM CRAMP for 2 h at 37°C, and % bacterial killing was determined by plating serial dilutions of samples (n = 4). Figure S3. […] Images were captured with a fluorescence microscope (Zeiss Axiovert 40 CFL). Quantification of % dead bacteria (out of total bacteria in field) is shown at the bottom. […] S. aureus-associated CRAMP fluorescence was analyzed by flow cytometry. […]

CRAMP [4] = test: ITC of HP and 2ODS-HP binding to CRAMP; parameters: species or system mouse; details: 25.0°C, 50 mM HEPS pH 7.4, 150 mM NaCl
Description: (§3) FIGURE 4 | 2-O-sulfated heparan compounds directly bind to CRAMP with high affinity. Alexa 647-conjugated CRAMP (0.5 μM) was incubated with Affi-Gel HP beads without or with 20 μg/mL of HP, NDS-HP, 2ODS-HP, or 6ODS-HP for 1 h at room temperature. CRAMP fluorescence associated with Affi-Gel HP beads was analyzed by flow cytometry. Results are shown as (A) % CRAMP binding and (B) mean fluorescence intensity (MFI) of CRAMP binding (n = 4, ***p < 0.001, ****p < 0.0001). ITC analyses for CRAMP binding to HP were performed at 25°C using a MicroCal iTC 200 titration calorimetry. The fitted heat curves of titrating CRAMP binding to (C) HP and (D) 2ODS-HP are shown.
ITC of CRAMP binding to HP and modified HP was carried out at 25.0°C using a MicroCal iTC 200 titration calorimetry system (Malvern, UK). A stock solution of CRAMP was diluted to 12.5 μM in 50 mM HEPS, pH 7.4, 150 mM NaCl, and approximately 300 μL of this solution was loaded into the ITC cell and titrated with 25 μM of HP or 2ODS-HP in the same buffer. Briefly, titration injection of HP or 2ODS-HP consisted of a first injection of 0.4 μL followed by 18 consecutive injections of 2 μL of 0.8 s duration and with a 2.5 min interval between injections. […] The enthalpy change of binding (ΔH), the binding affinity, and the binding stoichiometry were determined.

SMAP-29 = test: Inhibition by glycosaminoglycans of S. aureus killing by SMAP-29; type: cell-based, sheep; details: 5 μg/mL glycosaminoglycan, 0.5 μM SMAP-29, ~500 cfu USA300, phosphate buffer pH 7.4, 2 h at 37°C, n = 6
Description: (§4) Samples were plated onto TSA plates, and viable bacteria (cfu) were counted the following day. Data are shown as % bacterial killing, where killing activity in the presence of cathelicidin only represents 100% (n = 6, *p < 0.05, ****p < 0.0001, one-way ANOVA, multiple comparisons).
as §2
(§5) Late log phase S. aureus USA300 was washed with phosphate buffer (8.2 mM Na2HPO4, 1.8 mM KH2PO4, pH 7.4) and approximately 500 cfu were incubated with cathelicidins with or without excess GAGs for 2 h at 37°C as indicated. Viable bacteria were enumerated by plating onto TSA plates and counting colonies the following day. Results are shown as % bacterial killing, where 100% killing represents data derived from the group of bacteria incubated with cathelicidins only.

CRAMP [5] = test: Inhibition by glycosaminoglycans of S. aureus killing by CRAMP; type: cell-based, mouse; details: 5 μg/mL glycosaminoglycan, 0.5 μM CRAMP, ~500 cfu USA300, phosphate buffer pH 7.4, 2 h at 37°C, n = 6
Description: as §4, §2, §5
(§6) Figure S1. A) CRAMP expression was measured in uninfected Wt corneas or Wt corneas isolated at 4 h post-S. aureus USA300 infection. Briefly, eyes were enucleated, corneas were dissected, and isolated corneas were incubated with 10 mg/ml dispase II overnight at 4°C to peel off the corneal epithelium. Total RNA was purified from the corneal epithelium, and 1 ng of total RNA was analyzed by qRT-PCR for CRAMP or β-actin expression (n = 3, **p < 0.01). […] Bacterial killing was measured by plating serial dilutions onto TSA plates and counting colonies the following day. Results are shown as % bacterial survival (n = 4). Figure S2. […] Bacterial killing (%) was enumerated by plating serial dilutions onto TSA plates and counting colonies the following day (n = 5). B) Effects of pre-incubating S. aureus with glycosaminoglycans on bacterial killing by cathelicidins were examined by incubating 500 cfu of USA300 without or with 5 μg/ml HS, HP, DS, or CS for 30 min at 37°C. Bacteria were washed three times with buffer, incubated with 0.5 μM CRAMP for 2 h at 37°C, and % bacterial killing was determined by plating serial dilutions of samples (n = 4). Figure S3. S. aureus USA300 stained with BaclightGreen was incubated with 0.5 μM CRAMP in the absence or presence of 5 μg/ml HP, NDS-HP, 2ODS-HP, 6ODS-HP, H, NS-H, or NS2OS-H for 30 min at room temperature. Bacteria were washed and incubated with 10 μg/ml propidium iodide for 15 min on ice. Images were captured with a fluorescence microscope (Zeiss Axiovert 40 CFL). Quantification of % dead bacteria (out of total bacteria in field) is shown at the bottom. Figure S4. Alexa 647-conjugated CRAMP (0.5 μM) was incubated with fixed S. aureus USA300 without or with 5 μg/ml of the indicated glycosaminoglycans and chemically-desulfated HP compounds for 1 h at room temperature. S. aureus-associated CRAMP fluorescence was analyzed by flow cytometry. Representative FACS density plots are shown where heparan compounds containing 2-O-sulfated motifs decreased Alexa CRAMP binding by over 79% compared to the control (No GAG), except for NDS-HP where the reduction was approximately 65%. Fig. S5. Relative mRNA levels of A) Ndst1 and B) Sdc1 in the corneal epithelium of Hs2st^fl/fl, Krt12Cre, and Hs2st^fl/fl/Krt12Cre mice (n = 3).

CAP-18 = test: Inhibition by glycosaminoglycans of S. aureus killing by CAP-18; type: cell-based, rabbit; details: 5 μg/mL glycosaminoglycan, 0.5 μM CAP-18, ~500 cfu USA300, phosphate buffer pH 7.4, 2 h at 37°C, n = 6
Description: as §4, §2, §5

CRAMP [6] = test: Alexa 647-CRAMP binding to Affi-Gel HP beads, competition by HP compounds (flow cytometry); parameters: species or system mouse; details: 20 μg/mL competitor, 0.5 μM Alexa 647-conjugated CRAMP, 1 h at room temperature, n = 4
Description: as §3, §1

LL-37 = test: Inhibition by glycosaminoglycans of S. aureus killing by LL-37; type: cell-based, human; details: 5 μg/mL glycosaminoglycan, 1 μM LL-37, ~500 cfu USA300, phosphate buffer pH 7.4, 2 h at 37°C, n = 6
Description: as §4, §2, §5

CRAMP [7] = test: Alexa 647-CRAMP binding to fixed S. aureus, inhibition by glycosaminoglycans (flow cytometry); parameters: species or system mouse; details: 0.5 μM Alexa 647-conjugated CRAMP
Description: Alexa 647-conjugated CRAMP (0.5 μM) was incubated with 2% paraformaldehyde-fixed Staphylococcus aureus USA300 without or with 5 μg/mL HP, HS, CS, DS, NDS-HP, 6ODS-HP, or 2ODS-HP for 1 h at room temperature. S. aureus-associated CRAMP fluorescence was analyzed by flow cytometry. Results are shown as % Alexa CRAMP binding (n = 3, ****p < 0.0001).
Alexa 647 fluorophore was conjugated to CRAMP using the Lightning-Link Rapid FluoProbes647H labeling kit following the manufacturer’s instructions. S. aureus USA300 fixed in 2% paraformaldehyde for 20 min was resuspended in 20 μL of phosphate buffer and incubated with 0.5 μM of Alexa 647-labeled CRAMP for 30 min at room temperature without or with glycosaminoglycans. Unbound Alexa 647-labeled CRAMP was removed by washing with phosphate buffer, and Alexa 647-labeled CRAMP bound to bacteria was assessed by flow cytometry.
as §6

Substance | Inhibition of Alexa CRAMP binding to HP beads by unlabeled peptide [1] [%] | Live (green) / dead (red) state of most bacteria (S. aureus USA300 [2]) | Inhibition of bacterial killing by cathelicidins after pre-incubation with bacteria and washing away (S. aureus USA300 [3]) | Kd (CRAMP [4]; 12.5 μM CRAMP in cell, titrated with 25 μM HP, read-out: Binding affinity for CRAMP binding to HP (ITC)) [nM] | Inhibition of S. aureus killing by SMAP-29 (SMAP-29) | Inhibition of S. aureus killing by CRAMP (CRAMP [5]) | Inhibition of S. aureus killing by CAP-18 (CAP-18) | Inhibition of CRAMP binding to HP beads (CRAMP [6]) | Inhibition of S. aureus killing by LL-37 (LL-37) | Decrease of MFI of Alexa-labeled CRAMP binding to S. aureus compared to control (CRAMP [7]; 5 μg/mL glycosaminoglycan, 2% paraformaldehyde-fixed S. aureus USA300, 1 h at room temperature, n = 3) | Reduction of proportion of CRAMP-bound bacteria (Alexa CRAMP binding, FACS density plots) compared to No GAG (CRAMP [7]; 5 μg/ml glycosaminoglycan, fixed S. aureus USA300, 1 h at room temperature, representative plots) | Heat changes on incubation with CRAMP (ITC) (CRAMP [4]; 12.5 μM CRAMP titrated with 25 μM 2ODS-HP) | Reduction of mean fluorescence intensity (MFI) of CRAMP binding to HP beads compared to control (CRAMP [6])
CR-4: 20-mer peptide, amino acids 4–23 of mature CRAMP (LAGLLRKGGEKIGEKLKKIG; Cathelicidin antimicrobial peptide; UniProt P51437 138-157, looked up, fragment) | 34.7 |  |  |  |  |  |  |  |  |  |  |  | 
GLLRKGGEKIGEKLKKIGQKIKNFFQKLVPQPEQ [CRAMP] | 92.7 | dead |  |  |  |  |  |  |  |  |  |  | 
heparin [HP] |  |  | did not inhibit | 45.2 | over 70% | over 70% | over 70% | over 75% | over 70% |  |  |  | 
2-O-desulfated HP [2ODS-HP] |  |  |  |  | significantly inhibited the ability of HP to inhibit | significantly inhibited the ability of HP to inhibit | significantly inhibited the ability of HP to inhibit | 25% | significantly inhibited the ability of HP to inhibit | no effect | not | did not produce significant heat changes | not
